The molecules below were run against Cannabinoid receptor 1 (Taricha granulosa, UniProt Q9PUI7).
Sequence of Cannabinoid receptor 1 (Q9PUI7 whole entry): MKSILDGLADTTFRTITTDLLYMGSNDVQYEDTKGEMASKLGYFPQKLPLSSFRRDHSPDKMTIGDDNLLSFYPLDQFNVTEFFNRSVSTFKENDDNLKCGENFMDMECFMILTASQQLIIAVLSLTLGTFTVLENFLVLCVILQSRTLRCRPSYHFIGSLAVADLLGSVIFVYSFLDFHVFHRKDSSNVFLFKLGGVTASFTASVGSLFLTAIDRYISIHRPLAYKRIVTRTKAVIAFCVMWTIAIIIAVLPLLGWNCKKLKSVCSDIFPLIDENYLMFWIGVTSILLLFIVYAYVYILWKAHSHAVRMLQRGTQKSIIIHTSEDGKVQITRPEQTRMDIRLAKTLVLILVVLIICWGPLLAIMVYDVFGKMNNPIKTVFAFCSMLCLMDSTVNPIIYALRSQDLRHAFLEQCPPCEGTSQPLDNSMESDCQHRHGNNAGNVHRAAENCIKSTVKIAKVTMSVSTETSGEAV

SMILES	Ki [nM]
Cc1c(C(=O)c2cccc3ccccc23)c2cccc3c2n1[C@H](CN1CCOCC1)CO3 [WIN55212-2]	25.7
CC(=O)Oc1cc(OC(C)CCCc2ccccc2)cc2c1C1CC(O)CCC1C(C)N2 (centres undefined) [NSC_107822]	13
CCCCCCC(C)(C)c1ccc([C@H]2C[C@@H](O)CC[C@@H]2CCCO)c(O)c1 [CP-56667 [(+)-AC],XV]	3.8
CCCCC/C=C\C/C=C\C/C=C\C/C=C\CCCCCC(=O)NCCO	2400

Reference: BindingDB's records for doi:10.1046/j.1471-4159.2000.0750413.x (Oregon State University, 2000)
